Values joined by “and” are separate entries in the source; they are usually repeats but may differ in a detail not shown here. Identical values can stand only once. Peptide text beside a SMILES is read from it.
What was measured:
Type in all cases: cell-based
[1] = system: Xanthomonas axonopodis pv. vesicatoria 2133-2; details: Table S1, MIC range
Description: (§1) Erwinia amylovora PMV6076 (Institut National de la Recherche Agronomique, Angers, France), Pseudomonas syringae pv. syringae EPS94 (Institut de Tecnologia Agroalimentària, Universitat de Girona, Spain), and Xanthomonas axonopodis pv. vesicatoria 2133-2 (Instituto Valenciano de Investigaciones Agrarias, Valencia, Spain) were used as bacterial strains. They were stored and cultivated as previously described.
(§2) The minimum inhibitory concentration (MIC) was analyzed as previously described at 0.8, 1.6, 3.1, 6.2, 12.5, 25 and 50 μM [20].

[2] = system: Erwinia amylovora PMV6076; assay: Antibacterial activity (MIC), in vitro growth inhibition; details: Table S1, MIC range
Description: as §1, §2

[3] = system: Pseudomonas syringae pv. syringae EPS94; assay: as above; details: Table S1, MIC range
Description: as §1, §2

[4] = system: erythrocyte suspensions of human blood; assay: Hemolytic activity, hemoglobin release; details: human blood erythrocytes 5% v/v, absorbance 540 nm, percentage compared to melittin, three replicates; for Hemolysis (%) at 50 µM: peptide 50 μM (table prints 50 µM); for Hemolysis (%) at 125 µM: peptide 125 μM (table prints 125 µM)
Description: The hemolytic activity of the compounds was evaluated at 50 and 125 μM by determining hemoglobin release from erythrocyte suspensions of human blood (5% v/v) (Oxoid) using absorbance at 540 nm, as previously described. Three replicates for each peptide concentration were used.

SMILES | MIC Xav [1] | MIC Ea [2] | MIC Pss [3] | Hemolysis (%) at 50 µM [4] | Hemolysis (%) at 125 µM [4]
CC(C)C[C@@H]1NC(=O)[C@H](CCCCN)NC(=O)[C@H](CC(C)C)NC(=O)[C@H](CC(C)C)NC(=O)[C@H](CCCCN)NC(=O)[C@H](CCC(N)=O)NC(=O)[C@H](CCCCN)NC(=O)[C@H](CCCCN)NC(=O)[C@H](CCCCN)NC(=O)[C@H](Cc2c[nH]c3ccccc23)NC1=O [BPC154W, c(KLLKLWKKKQ)] (cyclo(KKKQKLLKLW)) | 1.6 to 3.1 µM | 25 to 50 µM | 3.1 to 6.2 µM | 4% | 7%
CC(C)C[C@@H]1NC(=O)[C@H](CCC(N)=O)NC(=O)[C@H](CC(C)C)NC(=O)[C@H](CCCCN)NC(=O)[C@H](CCCCN)NC(=O)[C@H](Cc2c[nH]c3ccccc23)NC(=O)[C@H](CC(C)C)NC(=O)[C@H](CCCCN)NC(=O)[C@H](CCCCN)NC(=O)[C@H](CCCCN)NC1=O [BPC086W, c(LKKKLWKKLQ)] (cyclo(KKKLWKKLQL)) | 0.8 to 1.6 µM | 6.2 to 12.5 µM | 3.1 to 6.2 µM | 4% | 8% and ≤ 8%
CC(C)C[C@@H]1NC(=O)[C@H](CCC(N)=O)NC(=O)[C@H](CCCCN)NC(=O)[C@H](CCCCN)NC(=O)[C@H](CC(C)C)NC(=O)[C@H](Cc2c[nH]c3ccccc23)NC(=O)[C@H](CCCCN)NC(=O)[C@H](CC(C)C)NC(=O)[C@H](CCCCN)NC(=O)[C@H](CCCCN)NC1=O [BPC140W, c(LKKLKWLKKQ)] (cyclo(KKLKWLKKQL)) | 3.1 to 6.2 µM | 12.5 to 25 µM | 6.2 to 12.5 µM | 31% | 37%
CC(C)C[C@@H]1NC(=O)[C@H](CCCCN)NC(=O)[C@H](CCCCN)NC(=O)[C@H](Cc2c[nH]c3ccccc23)NC(=O)[C@H](CCCCN)NC(=O)[C@H](CC(C)C)NC(=O)[C@H](CCCCN)NC(=O)[C@H](CC(C)C)NC(=O)[C@H](CCCCN)NC(=O)[C@H](CCC(N)=O)NC1=O [BPC090W, c(KLKLKWKKLQ)] (cyclo(KKLQKLKLKW)) | 1.6 to 3.1 µM | 12.5 to 25 µM | 6.2 to 12.5 µM | 9% | 15%
CC(C)C[C@@H]1NC(=O)[C@H](CCCCN)NC(=O)[C@H](CCCCN)NC(=O)[C@H](Cc2c[nH]c3ccccc23)NC(=O)[C@H](CCCCN)NC(=O)[C@H](CC(C)C)NC(=O)[C@H](CC(C)C)NC(=O)[C@H](CCCCN)NC(=O)[C@H](CC(C)C)NC(=O)[C@H](CCC(N)=O)NC1=O [BPC192W, c(LKLLKWKKLQ)] (cyclo(KKLQLKLLKW)) | 6.2 to 12.5 µM | 25 to 50 µM | 12.5 to 25 µM | 13% | 17%
CC(C)C[C@@H]1NC(=O)[C@H](CCCCN)NC(=O)[C@H](CCCCN)NC(=O)[C@H](CCC(N)=O)NC(=O)[C@H](CC(C)C)NC(=O)[C@H](CCCCN)NC(=O)[C@H](CC(C)C)NC(=O)[C@H](Cc2c[nH]c3ccccc23)NC(=O)[C@H](CCCCN)NC(=O)[C@H](CCCCN)NC1=O [BPC074W, c(KKLKKWLKLQ)] (cyclo(KKLKKWLKLQ)) | 1.6 to 3.1 µM | 12.5 to 25 µM | 6.2 to 12.5 µM | 39% | 50%
CC(C)C[C@@H]1NC(=O)[C@H](CCCCN)NC(=O)[C@H](CCC(N)=O)NC(=O)[C@H](CCCCN)NC(=O)[C@H](CC(C)C)NC(=O)[C@H](CC(C)C)NC(=O)[C@H](Cc2c[nH]c3ccccc23)NC(=O)[C@H](CCCCN)NC(=O)[C@H](CCCCN)NC(=O)[C@H](CCCCN)NC1=O [BPC106W, c(KLKKKWLLKQ)] (cyclo(KKKWLLKQKL)) | 3.1 to 6.2 µM | 25 to 50 µM | 3.1 to 6.2 µM | 2% | 2%
CC(C)C[C@@H]1NC(=O)[C@H](CCCCN)NC(=O)[C@H](CCC(N)=O)NC(=O)[C@H](CCCCN)NC(=O)[C@H](CC(C)C)NC(=O)[C@H](CCCCN)NC(=O)[C@H](Cc2c[nH]c3ccccc23)NC(=O)[C@H](CC(C)C)NC(=O)[C@H](CCCCN)NC(=O)[C@H](CCCCN)NC1=O [BPC114W, c(KLKKLWKLKQ)] (cyclo(KKLWKLKQKL)) | 1.6 to 3.1 µM | 12.5 to 25 µM | 3.1 to 6.2 µM | 29% | 38%
CC(C)C[C@@H]1NC(=O)[C@H](CCCCN)NC(=O)[C@H](CCCCN)NC(=O)[C@H](Cc2c[nH]c3ccccc23)NC(=O)[C@H](CCCCN)NC(=O)[C@H](CCCCN)NC(=O)[C@H](CC(C)C)NC(=O)[C@H](CC(C)C)NC(=O)[C@H](CCCCN)NC(=O)[C@H](CCC(N)=O)NC1=O [BPC094W, c(KLLKKWKKLQ)] (cyclo(KKLQKLLKKW)) | 3.1 to 6.2 µM | 25 to 50 µM | 6.2 to 12.5 µM | 35% | 42%
CC(C)C[C@@H]1NC(=O)[C@H](CCCCN)NC(=O)[C@H](CCC(N)=O)NC(=O)[C@H](CCCCN)NC(=O)[C@H](CCCCN)NC(=O)[C@H](CC(C)C)NC(=O)[C@H](Cc2c[nH]c3ccccc23)NC(=O)[C@H](CC(C)C)NC(=O)[C@H](CCCCN)NC(=O)[C@H](CCCCN)NC1=O [BPC132W, c(KLKKLWLKKQ)] (cyclo(KKLWLKKQKL)) | 1.6 to 3.1 µM | 12.5 to 25 µM | 3.1 to 6.2 µM | 5% | 8% and below 20%
CC(C)C[C@@H]1NC(=O)[C@H](CCCCN)NC(=O)[C@H](CCCCN)NC(=O)[C@H](CCCCN)NC(=O)[C@H](CCC(N)=O)NC(=O)[C@H](CCCCN)NC(=O)[C@H](CC(C)C)NC(=O)[C@H](CC(C)C)NC(=O)[C@H](Cc2c[nH]c3ccccc23)NC(=O)[C@H](CCCCN)NC1=O [BPC102W, c(KKKLKWLLKQ)] (cyclo(KKKLKWLLKQ)) | 6.2 to 12.5 µM | 12.5 to 25 µM | 3.1 to 6.2 µM | 12% | 17%
CC(C)C[C@@H]1NC(=O)[C@H](CCCCN)NC(=O)[C@H](CCCCN)NC(=O)[C@H](CCC(N)=O)NC(=O)[C@H](CCCCN)NC(=O)[C@H](CCCCN)NC(=O)[C@H](CC(C)C)NC(=O)[C@H](Cc2c[nH]c3ccccc23)NC(=O)[C@H](CCCCN)NC(=O)[C@H](CC(C)C)NC1=O [BPC136W, c(KKLLKWLKKQ)] (cyclo(KKLLKWLKKQ)) | 3.1 to 6.2 µM | 6.2 to 12.5 µM | 6.2 to 12.5 µM | 1% | 2%
CC(C)C[C@@H]1NC(=O)[C@H](CCCCN)NC(=O)[C@H](CCC(N)=O)NC(=O)[C@H](CC(C)C)NC(=O)[C@H](CCCCN)NC(=O)[C@H](CC(C)C)NC(=O)[C@H](Cc2c[nH]c3ccccc23)NC(=O)[C@H](CCCCN)NC(=O)[C@H](CCCCN)NC(=O)[C@H](CCCCN)NC1=O [BPC076W, c(KLKKKWLKLQ)] (cyclo(KKKWLKLQKL)) | 1.6 to 3.1 µM | 6.2 to 12.5 µM | 6.2 to 12.5 µM | 15% | 21%
CC(C)C[C@@H]1NC(=O)[C@H](CCCCN)NC(=O)[C@H](CCCCN)NC(=O)[C@H](Cc2c[nH]c3ccccc23)NC(=O)[C@H](CCCCN)NC(=O)[C@H](CCCCN)NC(=O)[C@H](CCCCN)NC(=O)[C@H](CC(C)C)NC(=O)[C@H](CCCCN)NC(=O)[C@H](CCC(N)=O)NC1=O [BPC198W, c(KLKKKWKKLQ)] (cyclo(KKKWKKLQKL)) | 3.1 to 6.2 µM | 25 to 50 µM | 25 to 50 µM | 2% | 4%
CC(C)C[C@@H]1NC(=O)[C@H](CCCCN)NC(=O)[C@H](CCCCN)NC(=O)[C@H](CCCCN)NC(=O)[C@H](CCC(N)=O)NC(=O)[C@H](CCCCN)NC(=O)[C@H](CCCCN)NC(=O)[C@H](CC(C)C)NC(=O)[C@H](Cc2c[nH]c3ccccc23)NC(=O)[C@H](CC(C)C)NC1=O [BPC128W, c(KKKLLWLKKQ)] (cyclo(KKKLLWLKKQ)) | 1.6 to 3.1 µM | 12.5 to 25 µM | 6.2 to 12.5 µM | 2% | 2%
